Measured values published in ChEMBL document CHEMBL5291721, “A preclinical secondary pharmacology resource illuminates target-adverse drug reaction associations of marketed drugs” (Nat Commun, 2023).

Assays:
Cannabinoid receptor 1 = Cannabinoid receptor 1 (Homo sapiens, UniProt P21554); assay type: functional
Substance-K receptor = biological target: T1, Substance-K receptor (Homo sapiens, UniProt P21452)
T1 sequence (P21452 whole entry): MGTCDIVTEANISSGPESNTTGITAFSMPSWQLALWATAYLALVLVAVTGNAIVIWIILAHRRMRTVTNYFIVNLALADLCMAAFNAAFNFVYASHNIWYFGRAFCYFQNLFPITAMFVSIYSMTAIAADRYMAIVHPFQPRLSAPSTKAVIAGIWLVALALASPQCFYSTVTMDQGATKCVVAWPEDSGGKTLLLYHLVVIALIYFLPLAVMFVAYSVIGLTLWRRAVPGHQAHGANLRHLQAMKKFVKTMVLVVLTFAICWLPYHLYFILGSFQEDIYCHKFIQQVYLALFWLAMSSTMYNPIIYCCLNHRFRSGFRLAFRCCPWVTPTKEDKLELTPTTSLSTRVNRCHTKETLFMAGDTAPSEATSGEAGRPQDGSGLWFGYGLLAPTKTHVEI

Androgen receptor [1] = biological target: T2, Androgen receptor (Rattus norvegicus, UniProt P15207); assay type: functional
T2 sequence (P15207 whole entry): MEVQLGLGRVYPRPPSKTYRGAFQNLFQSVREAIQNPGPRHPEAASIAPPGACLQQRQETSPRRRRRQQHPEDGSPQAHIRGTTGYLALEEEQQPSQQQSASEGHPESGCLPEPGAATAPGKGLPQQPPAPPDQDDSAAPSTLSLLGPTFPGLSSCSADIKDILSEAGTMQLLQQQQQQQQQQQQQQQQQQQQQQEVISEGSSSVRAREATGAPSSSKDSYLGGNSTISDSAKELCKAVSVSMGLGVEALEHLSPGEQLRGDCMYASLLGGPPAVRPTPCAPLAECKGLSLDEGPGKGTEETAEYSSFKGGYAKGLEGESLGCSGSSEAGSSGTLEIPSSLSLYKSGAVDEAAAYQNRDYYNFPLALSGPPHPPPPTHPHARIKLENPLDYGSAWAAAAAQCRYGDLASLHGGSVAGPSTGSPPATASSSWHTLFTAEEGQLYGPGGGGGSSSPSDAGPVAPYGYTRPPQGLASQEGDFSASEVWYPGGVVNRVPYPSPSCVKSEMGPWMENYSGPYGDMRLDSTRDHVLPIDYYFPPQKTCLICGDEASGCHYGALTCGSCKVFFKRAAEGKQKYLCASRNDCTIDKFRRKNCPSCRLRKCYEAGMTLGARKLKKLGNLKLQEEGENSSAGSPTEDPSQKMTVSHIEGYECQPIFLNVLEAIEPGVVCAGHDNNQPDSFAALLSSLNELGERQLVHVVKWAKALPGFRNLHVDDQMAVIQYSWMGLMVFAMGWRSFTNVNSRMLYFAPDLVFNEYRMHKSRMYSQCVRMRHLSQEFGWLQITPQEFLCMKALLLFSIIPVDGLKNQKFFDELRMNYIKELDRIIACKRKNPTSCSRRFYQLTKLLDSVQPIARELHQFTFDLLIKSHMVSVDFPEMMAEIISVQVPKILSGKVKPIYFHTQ

Androgen receptor [2] = biological target: T2, Androgen receptor
[3] = biological target: 5-hydroxytryptamine receptor 7 (Homo sapiens, UniProt P34969)
Chain of 5-hydroxytryptamine receptor 7 (P34969 whole entry): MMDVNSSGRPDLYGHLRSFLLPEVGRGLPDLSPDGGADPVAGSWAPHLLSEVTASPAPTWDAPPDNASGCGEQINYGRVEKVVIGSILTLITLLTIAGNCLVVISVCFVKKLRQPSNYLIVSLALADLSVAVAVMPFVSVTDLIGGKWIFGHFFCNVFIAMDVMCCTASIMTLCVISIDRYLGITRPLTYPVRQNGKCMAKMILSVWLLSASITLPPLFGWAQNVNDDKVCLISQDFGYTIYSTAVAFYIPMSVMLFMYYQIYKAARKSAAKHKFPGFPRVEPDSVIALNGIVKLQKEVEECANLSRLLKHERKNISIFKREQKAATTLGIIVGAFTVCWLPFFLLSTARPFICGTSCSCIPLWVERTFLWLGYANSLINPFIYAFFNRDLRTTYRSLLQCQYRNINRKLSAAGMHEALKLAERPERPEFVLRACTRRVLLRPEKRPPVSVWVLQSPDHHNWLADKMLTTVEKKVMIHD

[4] = biological target: T3, Muscarinic acetylcholine receptor M4 (Homo sapiens, UniProt P08173)
T3 sequence (P08173 whole entry): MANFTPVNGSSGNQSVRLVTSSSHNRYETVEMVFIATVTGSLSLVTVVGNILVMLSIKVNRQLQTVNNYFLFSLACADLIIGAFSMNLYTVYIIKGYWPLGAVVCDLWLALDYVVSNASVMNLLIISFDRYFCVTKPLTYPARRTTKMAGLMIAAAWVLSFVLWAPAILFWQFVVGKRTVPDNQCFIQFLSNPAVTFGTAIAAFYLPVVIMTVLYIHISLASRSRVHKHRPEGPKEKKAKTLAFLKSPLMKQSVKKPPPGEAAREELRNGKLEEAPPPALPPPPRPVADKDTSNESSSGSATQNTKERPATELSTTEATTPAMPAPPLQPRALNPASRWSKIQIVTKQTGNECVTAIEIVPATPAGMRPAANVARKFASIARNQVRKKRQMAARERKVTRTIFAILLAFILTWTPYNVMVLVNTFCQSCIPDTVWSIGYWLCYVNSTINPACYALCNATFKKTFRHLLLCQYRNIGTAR

[5] = biological target: T4, Muscarinic acetylcholine receptor M5 (Homo sapiens, UniProt P08912)
T4 sequence (P08912 whole entry): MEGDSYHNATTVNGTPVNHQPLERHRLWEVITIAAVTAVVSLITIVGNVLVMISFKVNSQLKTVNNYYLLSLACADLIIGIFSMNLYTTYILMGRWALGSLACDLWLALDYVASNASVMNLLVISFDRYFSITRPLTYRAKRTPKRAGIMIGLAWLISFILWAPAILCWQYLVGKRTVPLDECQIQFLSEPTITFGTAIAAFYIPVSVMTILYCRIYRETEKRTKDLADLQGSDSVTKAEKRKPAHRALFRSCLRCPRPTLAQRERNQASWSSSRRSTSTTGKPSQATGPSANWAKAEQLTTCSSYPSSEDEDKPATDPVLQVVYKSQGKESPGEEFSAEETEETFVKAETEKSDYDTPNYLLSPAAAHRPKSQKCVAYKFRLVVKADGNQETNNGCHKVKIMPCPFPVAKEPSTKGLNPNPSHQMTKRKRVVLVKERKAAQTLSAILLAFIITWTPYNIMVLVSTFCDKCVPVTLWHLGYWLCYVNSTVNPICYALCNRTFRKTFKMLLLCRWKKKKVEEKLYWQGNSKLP

[6] = biological target: Voltage-dependent L-type calcium channel subunit alpha-1C (Homo sapiens, UniProt Q13936); assay type: functional, cell-based
Chain of Voltage-dependent L-type calcium channel subunit alpha-1C (Q13936 whole entry): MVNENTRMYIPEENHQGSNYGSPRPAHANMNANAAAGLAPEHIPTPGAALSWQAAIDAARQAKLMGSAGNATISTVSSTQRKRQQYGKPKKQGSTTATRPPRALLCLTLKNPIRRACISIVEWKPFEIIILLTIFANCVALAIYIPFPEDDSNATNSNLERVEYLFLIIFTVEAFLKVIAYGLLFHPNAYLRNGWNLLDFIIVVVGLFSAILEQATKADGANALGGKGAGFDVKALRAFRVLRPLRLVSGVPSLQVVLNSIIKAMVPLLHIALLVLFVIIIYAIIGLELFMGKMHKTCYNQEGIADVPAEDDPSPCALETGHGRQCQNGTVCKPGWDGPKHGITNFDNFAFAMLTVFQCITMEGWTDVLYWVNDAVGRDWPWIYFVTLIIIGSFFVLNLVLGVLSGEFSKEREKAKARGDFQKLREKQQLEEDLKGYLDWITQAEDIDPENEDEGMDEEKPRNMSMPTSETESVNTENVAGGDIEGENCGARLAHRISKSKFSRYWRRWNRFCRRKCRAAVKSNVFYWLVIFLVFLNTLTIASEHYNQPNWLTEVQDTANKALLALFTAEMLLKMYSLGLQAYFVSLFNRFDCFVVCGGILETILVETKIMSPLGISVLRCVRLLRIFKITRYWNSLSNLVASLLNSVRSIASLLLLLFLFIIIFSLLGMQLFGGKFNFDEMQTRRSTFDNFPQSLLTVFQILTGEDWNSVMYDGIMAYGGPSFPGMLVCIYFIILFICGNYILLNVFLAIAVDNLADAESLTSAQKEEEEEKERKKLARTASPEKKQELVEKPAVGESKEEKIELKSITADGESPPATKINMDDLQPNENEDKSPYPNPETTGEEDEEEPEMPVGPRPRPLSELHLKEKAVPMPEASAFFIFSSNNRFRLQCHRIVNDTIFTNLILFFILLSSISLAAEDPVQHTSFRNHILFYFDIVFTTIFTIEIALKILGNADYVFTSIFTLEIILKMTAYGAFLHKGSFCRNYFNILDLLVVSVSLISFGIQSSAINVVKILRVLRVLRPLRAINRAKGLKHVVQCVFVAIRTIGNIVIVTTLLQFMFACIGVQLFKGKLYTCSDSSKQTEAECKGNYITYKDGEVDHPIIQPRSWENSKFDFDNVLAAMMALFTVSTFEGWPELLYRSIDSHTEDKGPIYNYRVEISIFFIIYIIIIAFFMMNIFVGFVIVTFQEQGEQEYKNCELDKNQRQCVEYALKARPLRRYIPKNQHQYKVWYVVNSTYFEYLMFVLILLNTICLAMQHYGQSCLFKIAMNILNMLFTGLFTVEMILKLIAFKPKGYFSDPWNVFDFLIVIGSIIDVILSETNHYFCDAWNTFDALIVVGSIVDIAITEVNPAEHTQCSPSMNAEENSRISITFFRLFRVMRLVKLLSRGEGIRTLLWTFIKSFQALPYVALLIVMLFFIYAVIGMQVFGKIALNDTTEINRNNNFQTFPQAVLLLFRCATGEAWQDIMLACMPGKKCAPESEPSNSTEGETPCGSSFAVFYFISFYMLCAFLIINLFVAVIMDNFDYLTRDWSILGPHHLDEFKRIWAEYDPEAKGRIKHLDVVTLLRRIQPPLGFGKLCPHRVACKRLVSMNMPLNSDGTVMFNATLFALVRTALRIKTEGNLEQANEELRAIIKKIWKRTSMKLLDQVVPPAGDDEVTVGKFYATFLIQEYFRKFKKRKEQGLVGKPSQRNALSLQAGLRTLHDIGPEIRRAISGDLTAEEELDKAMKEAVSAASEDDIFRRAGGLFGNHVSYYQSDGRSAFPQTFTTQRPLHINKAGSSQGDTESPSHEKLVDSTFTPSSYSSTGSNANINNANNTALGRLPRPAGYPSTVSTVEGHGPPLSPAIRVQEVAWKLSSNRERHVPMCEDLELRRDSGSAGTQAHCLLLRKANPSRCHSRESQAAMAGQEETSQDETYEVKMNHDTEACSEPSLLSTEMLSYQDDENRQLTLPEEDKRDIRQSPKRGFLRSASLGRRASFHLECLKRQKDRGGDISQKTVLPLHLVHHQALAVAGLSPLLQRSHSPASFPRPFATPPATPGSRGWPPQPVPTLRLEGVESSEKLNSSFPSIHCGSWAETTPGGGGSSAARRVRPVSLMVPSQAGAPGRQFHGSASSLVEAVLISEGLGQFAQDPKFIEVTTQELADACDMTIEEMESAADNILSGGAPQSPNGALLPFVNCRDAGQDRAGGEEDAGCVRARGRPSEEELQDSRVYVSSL

Androgen receptor [7] = biological target: T2, Androgen receptor; assay type: functional; remark: listed apart in the source
[8] = biological target: T5, Nuclear receptor subfamily 1 group I member 3 (Homo sapiens, UniProt Q14994); assay type: functional
T5 sequence (Q14994 whole entry): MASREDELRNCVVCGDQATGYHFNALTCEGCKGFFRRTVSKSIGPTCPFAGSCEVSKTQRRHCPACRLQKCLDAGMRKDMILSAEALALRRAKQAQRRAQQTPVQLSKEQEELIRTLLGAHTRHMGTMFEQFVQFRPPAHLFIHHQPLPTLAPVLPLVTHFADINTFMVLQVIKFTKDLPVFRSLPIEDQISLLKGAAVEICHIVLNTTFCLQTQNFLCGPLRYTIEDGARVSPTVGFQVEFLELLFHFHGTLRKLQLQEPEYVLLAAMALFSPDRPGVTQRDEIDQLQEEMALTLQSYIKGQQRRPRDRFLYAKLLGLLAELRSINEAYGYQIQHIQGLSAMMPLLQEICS
Note: assay procedure not described here.

Chain of Cannabinoid receptor 1 (P21554 whole entry): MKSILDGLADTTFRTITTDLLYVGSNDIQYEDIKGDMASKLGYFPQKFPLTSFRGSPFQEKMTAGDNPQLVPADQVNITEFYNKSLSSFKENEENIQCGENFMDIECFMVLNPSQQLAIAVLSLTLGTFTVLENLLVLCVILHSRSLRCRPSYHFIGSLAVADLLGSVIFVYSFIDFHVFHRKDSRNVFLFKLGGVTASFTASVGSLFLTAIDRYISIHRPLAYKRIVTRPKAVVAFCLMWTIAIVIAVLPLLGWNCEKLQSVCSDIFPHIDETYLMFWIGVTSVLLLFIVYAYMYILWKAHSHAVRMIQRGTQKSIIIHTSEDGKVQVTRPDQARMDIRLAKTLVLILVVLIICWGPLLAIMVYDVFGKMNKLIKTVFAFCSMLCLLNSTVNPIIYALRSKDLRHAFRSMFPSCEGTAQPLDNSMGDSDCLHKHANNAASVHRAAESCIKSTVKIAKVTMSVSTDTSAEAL

Question: How did the AC50 (Cannabinoid receptor 1) turn out when `CCOc1nc2cccc(C(=O)O)c2n1Cc1ccc(-c2ccccc2-c2nnn[nH]2)cc1` was run?
Answer: > 10 µM

Question: What about the AC50 (Substance-K receptor) of the same compound?
Answer: > 10 µM

Question: And the AC50 (Androgen receptor [1])?
Answer: > 30 µM

Question: What about the AC50 (Androgen receptor [2]) of the same compound?
Answer: > 30 µM

Question: What about the AC50 [3] of the same compound?
Answer: > 10 µM

Question: And the AC50 [4]?
Answer: > 10 µM

Question: And the AC50 [5]?
Answer: > 10 µM

Question: With `CCCc1nc2c(C)cc(-c3nc4ccccc4n3C)cc2n1Cc1ccc(-c2ccccc2C(=O)O)cc1` as the compound, how does the AC50 (Cannabinoid receptor 1) read?
Answer: > 10 µM

Question: What about the AC50 [3] of the same compound?
Answer: > 10 µM

Question: What about the AC50 [5] of the same compound?
Answer: > 10 µM

Question: Which results are given for `CCOc1cc([C@@H](CS(C)(=O)=O)N2C(=O)c3cccc(NC(C)=O)c3C2=O)ccc1OC`?
Answer: AC50 (Androgen receptor [1]): > 30 µM; AC50 [6]: > 50 µM

Question: With `CC(C(=O)O)c1ccc2oc(-c3ccc(Cl)cc3)nc2c1` (centres undefined) [BENOXAPROFEN] as the compound, how does the AC50 (Androgen receptor [1]) read?
Answer: > 30 µM

Question: What about the AC50 (Androgen receptor [7]) of the same compound?
Answer: > 30 µM

Question: For `CC=CC1=C(C(=O)O)N2C(=O)[C@@H](NC(=O)[C@H](N)c3ccc(O)cc3)[C@H]2SC1` [CEFPROZIL], which AC50 (Androgen receptor [2]) is on record?
Answer: > 30 µM

Question: `CCC(=O)O[C@]1(C(=O)CCl)[C@@H](C)C[C@H]2[C@@H]3CCC4=CC(=O)C=C[C@]4(C)[C@@]3(F)[C@@H](O)C[C@@]21C` [CLOBETASOL PROPIONATE] was tested. Which AC50 (Androgen receptor [1]) did it give?
Answer: > 30 µM

Question: What about the AC50 (Androgen receptor [7]) of the same compound?
Answer: 27 µM

Question: How did the AC50 (Cannabinoid receptor 1) turn out when `Cc1nc(Nc2ncc(C(=O)Nc3c(C)cccc3Cl)s2)cc(N2CCN(CCO)CC2)n1` [DASATINIB] was run?
Answer: > 10 µM

Question: And the AC50 (Substance-K receptor)?
Answer: > 10 µM

Question: And the AC50 [4]?
Answer: > 10 µM

Question: What about the AC50 [5] of the same compound?
Answer: > 10 µM

Question: What does the source list for `O=C(O)Cc1ccccc1Nc1c(Cl)cccc1Cl` [DICLOFENAC]?
Answer: AC50 (Cannabinoid receptor 1): > 10 µM; AC50 (Substance-K receptor): > 10 µM; AC50 [8]: 23 µM; AC50 (Androgen receptor [2]): > 30 µM; AC50 [3]: > 10 µM; AC50 [4]: > 10 µM; AC50 [5]: > 10 µM

Question: For `Cc1ccc(C)c(OCCCC(C)(C)C(=O)O)c1` [GEMFIBROZIL], which AC50 (Androgen receptor [2]) is on record?
Answer: > 30 µM

Question: `COc1ccccc1OC1(C)OC(=O)c2ccccc2O1` (centres undefined) [GUAIMESAL] was tested. Which AC50 (Androgen receptor [1]) did it give?
Answer: > 30 µM

Question: And the AC50 (Androgen receptor [7])?
Answer: > 30 µM

Question: How did the AC50 [6] turn out when `CCCCCCCN(CC)CCCC(O)c1ccc(NS(C)(=O)=O)cc1` (centres undefined) [IBUTILIDE] was run?
Answer: > 30 µM

Question: With `CNC(=C[N+](=O)[O-])NCCSCc1csc(CN(C)C)n1` [NIZATIDINE] as the compound, how does the AC50 (Androgen receptor [2]) read?
Answer: > 10 µM

Question: Which AC50 (Cannabinoid receptor 1) does the source give for `CN(CCOc1ccc(CC2SC(=O)NC2=O)cc1)c1ccccn1` (centres undefined) [ROSIGLITAZONE] here?
Answer: > 10 µM

Question: And the AC50 [8]?
Answer: 18 µM

Question: What about the AC50 [3] of the same compound?
Answer: > 10 µM

Question: And the AC50 [5]?
Answer: > 10 µM

Question: Which AC50 [8] does the source give for `COc1cc(C(=O)NS(=O)(=O)c2ccccc2C)ccc1Cc1cn(C)c2ccc(NC(=O)OC3CCCC3)cc12` [ZAFIRLUKAST] here?
Answer: 4 µM

Question: Which AC50 [6] does the source give for `O=C1Cc2cc(CCN3CCN(c4nsc5ccccc45)CC3)c(Cl)cc2N1` [ZIPRASIDONE] here?
Answer: > 50 µM
